Patent US10126289B2, “Multimodality CMOS sensor array for physiological characterization of cells” (Georgia Tech Research Corporation, priority 2015, dated 2018)

What was measured:
[1] = tested on: human ovarian cancer cells (HeyA8-F8); details: 200 μg/mL luciferin at T=0; VPD 0.4V
Protocol: Ovarian Cancer Cells. For culturing the ovarian cancer cells (HeyA8-F8), the CMOS chip surface is sterilized by 70% ethanol and then washed three times with sterile Phosphate Buffered Saline (PBS). To increase cell adhesion to the chip surface, 0.1% gelatin is added onto the chip for 30 minutes before being aspirated. […] Ovarian cancer cells are then seeded directly onto the CMOS chip and allowed to attach before adding 1 mL of cell culture media.
The human ovarian cancer cells (HeyA8-F8) can constitutively express firefly luciferase. […] The bioluminescence information can be used to verify the viability of the HeyA8-F8 cancer cells and can be further extended to other bioluminescence cell-based assays.
Since the intensity of the bioluminescence light is generally weak, the background noise, such as the photodiode dark current, should be suppressed and calibrated. […] Moreover, dark current in each sensing pixel is recorded before the measurement and then subtracted after the bioluminescence recoding.
The CMOS sensor chip starts data recording after a 130-second setup time. During the optical detection, the photodiode reset pulse width is 1 second and the repetition rate is 0.05 Hz. Thus, each photo current integration window is 19 seconds, and the optical detection data is refreshed every 20 seconds. […]

[2] = tested on: human ovarian cancer cells (HeyA8-F8); details: general statement; depends on number of cells and luciferin concentration; cited from earlier work
human cardiomyocytes [3] = test: Joint-modality cardiac drug screening: extracellular voltage recording of cardiomyocyte beating on CMOS sensor chip; format: cell-based; details: 10 nM isoproterenol in culture medium
Protocol: (§1) Human Cardiomyocytes. Human ESCs are first cultured in a monolayer until confluence. Next, cardiomyocytes are directly differentiated through the use of small molecules Gsk3 inhibitor and Wnt inhibitor for 14 days. Finally, the CMOS chip is sterilized using 70% ethanol and coated with a Matrigel matrix as a protein mixture layer to enhance cell culture and attachment. Cardiomyocytes are then seeded onto the CMOS chips as either single cells or aggregated cardiospheres.
(§2) On-chip cultured human cardiomyocytes was used in this experiment. Their autonomous beating is captured by the extracellular voltage recording, and the beating rate is used to characterize the potency of the cardiac drugs. Isoproterenol, a small molecule cardiac drug, is used in this example. Isoproterenol has its known drug effect of activating the β1-receptors on the cardiac cells and increasing the cardiac cells beating rate. It has been widely used to treat bradycardia and heart block.
(§3) First, the on-chip cardiomyocytes beating spikes were recorded as the extracellular voltage recording in a normal culture medium. The baseline cellular impedance mapping was also measured. Next, 10 nM isoproterenol was directed to the cell culture medium using pipettes, and the cardiomyocytes are real-time monitored with joint-modality measurements. […]

human cardiomyocytes [4] = test: Joint-modality cardiac drug screening: real-time cellular impedance sensing (cell attachment); format: cell-based; details: 10 nM isoproterenol; FIG. 20
Protocol: as §1, §2, §3

O=C(O)[C@H]1CSC(c2nc3ccc(O)cc3s2)=N1 [luciferin]
time at which bioluminescence emission fully decays [1]: 800 s
time of bioluminescence emission peak after administration [1]: around 300 seconds
time of luminescence emission peak after administration (in general) [2]: about 5 minutes

CC(C)NCC(O)c1ccc(O)c(O)c1 (centres unmarked) [isoproterenol, Isoproterenol]
increase of recorded number of cell beating spikes in the 90-second counting window (human cardiomyocytes [3]): 150%
real-time cardiomyocytes impedance change (cell attachment) (human cardiomyocytes [4]): small decrease
